“And” between values parts separate entries of the source, which are not always exact repeats. Equal entries are not always repeated.

Assay [1] deals with MAO P3. Kind of assay: Substrate specificity (Vmax, Km) of purified MAO P3, GC-MS. The settings on record: purified MAO P3 1 U/mL, 0.1 M potassium phosphate buffer pH 7.2, 30 °C. Format: biochemical, Pseudogymnoascus sp. P3. How it is done:
(§1) Substrate specificity of MAO P3 was examined towards sixteen amine substrates (listed in Table 3) that differed in the number of carbons and various substitutions. Bioconversion was carried out in 5 mL glass tubes (Schott, Germany), where the total volume of the reaction was 2.5 mL and was comprised of 1 mL of MAO P3 (1 U/mL), where the cell-free extracts were used for the initial oxidation screening and the purified enzyme, for substrate specificity. An amount of 0.75 mL of a substrate (in the range of concentrations between 10 and 100 mM) was resuspended in 0.1 M potassium phosphate pH 7.2, and 0.75 mL of 10 mM potassium phosphate buffer pH 7.2. Initial oxidation screening was carried out for 4 h at 30 °C, 810 rpm. The substrate specificity was measured at 30 °C; reactions were carried out for 5 h, 810 rpm. In order to analyze the products of the bioconversion, samples were first neutralized by the addition of 0.25 mL of 1 M NaOH. An amount of 0.5 mL of dichloromethane was added to samples and incubated at room temperature with shaking for 1 min. The samples were centrifuged for 5 min, 5000 rpm, 4 °C. The organic phase was collected for the gas chromatography-mass spectrometry (GC-MS) analysis. The Km values were calculated based on […] curves (see the Supplementary Materials).
(§2) GC-MS analyses were carried out on a Pegasus 4D (LECO, USA) apparatus, equipped with an Agilent 6890N gas chromatograph coupled with a time-of-flight mass spectrometer (LECO, Saint Joseph, MI, USA). Samples were injected with the GerstelMultiPurpose sampler (MPS 2). The GC was fitted with a BPX5 capillary column of 30 m × 0.25 mm × 0.25 µm (SGE). Helium was used as a carrier gas with a flow rate of 1.5 mL/min. The injector temperature was held at 250 °C. The oven temperature was initially held at 40 °C for 2 min, ramped up to 200 °C by 10 °C/min; the total run time was 20 min. The detector was operated in EI mode with the transfer line maintained at 280 °C. All substrates were purchased from MerckMillipore, USA, and quantified by GC analysis based on their peak areas and calibration curves prepared for each individual. GC-MS spectra are presented in the Supplementary Materials.
Method S3. Determination of Km and Vmax values based on Lineweaver-Burk curves
The double-reciprocal curve was create based on the inverse initial velocity as a function of the inverse substrate
concentration. Curves were created for each amine substrate (Fig. S2), based on the results of GC-MS analysis (Paragraph
Figure S4. The double-reciprocal curves for MAO P3 amines substrates: A. 3-azabicyclo[3.3.0]octane;
B. hexamethyleneimine; C. 6,6-dimethyl-3-azabicyclohexane; D. cyclopentylamine; E. α-methylbenzylamine;
F. pyrrolidine; G. sec-butylamine; H. indoline.
(1 picture or pasted object on this page, not shown here)

Assay [2] relates to MAO P3. As to the kind of experiment: Initial oxidation screening: bioconversion of amine substrates by cell-free extract, GC-MS. It counts as biochemical, Pseudogymnoascus sp. P3. The settings on record: 10 mM substrate, 10 mM potassium phosphate buffer pH 7.2, cell-free intracellular extract of P3 strain, 4 h at 30 °C; relative to compound 9 = 100%. How it is done:
as §1
as §2, with “Samples” for “GC-MS analyses were carried out on a Pegasus 4D (LECO, USA) apparatus, equipped with an Agilent 6890N gas chromatograph coupled with a time-of-flight mass spectrometer (LECO, Saint Joseph, MI, USA). Samples”, “The GC was fitted with a BPX5 capillary column of 30 m × 0.25 mm × 0.25 µm (SGE).” left out

A further assay concerns MAO N (N338S, M348K). The arrangement: method as in PMID 12207381. Conditions: MAO N with two point mutations (N338S, M348K); cited from earlier work.
A further assay deals with native MAO N. The settings on record: cited from earlier work.

Take `CC(N)c1ccccc1` (stereo not drawn) [Substrate 5, α-methylbenzylamine]: in the assay on MAO P3 [1], the Km (usually the substrate concentration at which the rate is half of its maximum) was 4.1 mM and 4.13 mM; the Vmax – broadly, the top rate of the reaction or transport when substrate is in excess – came out at 0.27 mM/h. Further, the “Rate of Oxidation” value in the assay on MAO P3 [2] is reported as 41%. Besides, in the assay on MAO N (N338S, M348K), the Km was 0.4 mM. In addition, the kcat (commonly the maximal rate divided by the concentration of active sites) in the assay with native MAO N is 0.00283 s⁻¹.

Values taken from paper PMC8538783, “Green Oxidation of Amines by a Novel Cold-Adapted Monoamine Oxidase MAO P3 from Psychrophilic Fungi Pseudogymnoascus sp. P3” (Molecules, 2021).
